From patent US11684614B2, “Formulations of hydroxypyridonate actinide/lanthanide decorporation agents” (priority 2017, dated 2023)
Like-named read-outs stand apart in the source and are kept apart here.

Tests used:
[1] = Prototype oral formulation preparation and physico-chemical characterization (Example 2); type: physicochemical; conditions: powder in bottle compositions
Experimental: Suitable formulation methodologies such as direct compression, dry compaction, and/or wet granulation processes were evaluated.
Powder in bottle (PIB) is one of the most convenient dosage form used in early stage clinical development because of its ease of use. In comparison with capsules, PIB can carry large dose and fill weights. […] The reason for evaluating each composition is also described. […] TABLE 2.14 describes the corresponding properties of the evaluated formulations.
TABLE 2.16 describes the corresponding properties of the evaluated formulations.
Chewable tablets are formulated for use in the mouth. They are usually uncoated, and are formulated to provide a release and absorption of the active ingredient(s) in the mouth/buccal cavity or from stomach. […] TABLE 2.18 describes the corresponding properties of the evaluated formulations.
Various compositions and processes (Direct compression & Wet granulation) were evaluated to formulate conventional tablets with 1000, 750 and/or 500 mg drug load. […]

[2] = type: in vivo, Swiss-Webster mice
From the text: Formulated material was used in the single dose in vivo ADME characterization studies in Sprague Dawley rats and Swiss-Webster mice with 14C-labeled 3,4,3-L1(1,2-HOPO).
Pharmacokinetic parameters and disposition/biodistribution of 3,4,3-L1(1,2-HOPO) were characterized in vivo (with the aid of two 14C labels on the spermine backbone of the parent product) in two non-GLP studies using Swiss-Webster mice and Sprague Dawley rats. The study designs for these two studies are shown in TABLE 5.1 and TABLE 5.2, respectively. Groups of six mice (3 male, 3 female) were given a single dose of [14C]-3,4,3-L1(1,2-HOPO) via iv, ip, or po routes, respectively. An additional group of six mice (3 male, 3 female) were administered the 14C-labeled API with permeability enhancer (10% sodium oleate) by oral gavage (po). Similarly, groups of six rats (3 male, 3 female) were administered a single iv dose of the 14C-labeled API or a single po dose of the 14C-labeled API with 10% sodium oleate. In each of these studies, samples were collected at scheduled time points up to 24 hr post-dose and analyzed for 14C content using liquid scintillation counting. Blood, liver, kidney, feces and urine were collected and analyzed from the mice. Blood, brain, liver, kidney, lungs, spleen, skeletal muscle tissues, gastrointestinal (GI) tract samples, carcasses, feces, and urine were collected and analyzed from the rats.

[3] = biological target: T1, CYP1A2 (Homo sapiens, UniProt P05177); experiment: CYP inhibition; type: in vitro ADME
T1 sequence (P05177 1-516): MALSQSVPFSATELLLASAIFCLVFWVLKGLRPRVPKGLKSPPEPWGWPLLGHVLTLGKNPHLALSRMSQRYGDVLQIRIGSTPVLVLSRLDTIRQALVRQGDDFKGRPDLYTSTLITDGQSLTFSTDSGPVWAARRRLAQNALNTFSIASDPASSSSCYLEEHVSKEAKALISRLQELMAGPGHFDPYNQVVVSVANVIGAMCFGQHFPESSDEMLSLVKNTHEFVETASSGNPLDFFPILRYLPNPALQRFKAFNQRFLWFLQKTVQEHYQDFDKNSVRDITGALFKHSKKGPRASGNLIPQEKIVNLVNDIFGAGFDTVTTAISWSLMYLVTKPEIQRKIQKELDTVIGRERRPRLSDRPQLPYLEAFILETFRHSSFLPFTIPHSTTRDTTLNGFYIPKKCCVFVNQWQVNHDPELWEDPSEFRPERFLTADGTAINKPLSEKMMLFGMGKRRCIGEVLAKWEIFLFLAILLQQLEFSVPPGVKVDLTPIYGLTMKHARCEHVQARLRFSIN

[4] = biological target: CYP3A4 (Homo sapiens, UniProt P08684); experiment: CYP inhibition; type: in vitro ADME
CYP3A4, sequence (P08684 whole entry): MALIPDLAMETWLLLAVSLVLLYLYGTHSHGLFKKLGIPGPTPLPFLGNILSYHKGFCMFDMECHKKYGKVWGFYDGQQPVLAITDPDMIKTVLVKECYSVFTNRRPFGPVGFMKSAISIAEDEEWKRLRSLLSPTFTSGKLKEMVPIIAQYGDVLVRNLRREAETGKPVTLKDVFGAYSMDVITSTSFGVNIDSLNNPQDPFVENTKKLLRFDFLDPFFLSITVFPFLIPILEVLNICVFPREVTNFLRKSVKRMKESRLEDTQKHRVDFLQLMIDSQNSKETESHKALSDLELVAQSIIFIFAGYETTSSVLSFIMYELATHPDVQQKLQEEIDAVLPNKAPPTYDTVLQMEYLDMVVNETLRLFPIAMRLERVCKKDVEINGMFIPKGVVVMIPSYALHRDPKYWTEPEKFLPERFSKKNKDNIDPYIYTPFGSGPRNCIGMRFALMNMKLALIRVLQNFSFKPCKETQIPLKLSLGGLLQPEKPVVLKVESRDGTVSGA

[5] = Stability in plasma; type: in vitro ADME
[6] = Single oral dose GLP safety (toxicology) study in beagle dogs; type: in vivo
Experimental: The clinical formulation was tested in a single dose GLP toxicology and cardiovascular safety pharmacology study in beagle dogs.
Based on this study, the MTD in dogs after a single oral administration is considered to be greater than 150 mg/kg.

[7] = GLP single oral dose cardiovascular assessment in beagle dogs (electrocardiogram, blood pressure); type: in vivo; conditions: 37.5, 75, or 150 mg/kg single oral dose
Experimental: Cardiovascular parameters in beagle dogs after a single oral administration of formulated capsules was determined in a GLP study
Electrocardiograms and blood pressure were evaluated from 3 male and 3 female beagle dogs per dose group (0, 37.5, 75, or 150 mg/kg) at pretest, 1 and 4 hours post-dose, and 7 days after a single oral dose of formulated material (TABLE 8.1). […] Instances of increased or decreased blood pressure (hypertension or hypotension) in various dogs were considered sporadic or due to stress, excitement, or struggling during the time of recording and not test article related. In summary, electrocardiogram and blood pressure assessments in beagle dogs raised no cardiovascular safety concerns.

[8] = 7-day oral gavage study in Sprague Dawley rats (SRI No. M801-10); type: in vivo
[9] = po, female mice, formulated with sodium oleate
[10] = po, female mice, without sodium oleate
[11] = po, male mice, formulated with sodium oleate
[12] = po, male mice, without sodium oleate
[13] = Day 15, the one high-dose female with renal findings

Q: Which “behavior when reconstituted in water” value [1] does the source give for `O=C(NCCCN(CCCCN(CCCNC(=O)c1cccc(=O)n1O)C(=O)c1cccc(=O)n1O)C(=O)c1cccc(=O)n1O)c1cccc(=O)n1O` [3,4,3-L1(1,2-HOPO)] here?
A: formed a sticky mass

Q: What about the “oral bioavailability (F) of radioactive compound” value ([2]; female mice) of the same compound?
A: 2.6%

Q: And the “oral bioavailability (F) of radioactive compound” value ([2]; male mice)?
A: 1.2%

Q: And the “enhancement of exposure parameters with sodium oleate” value ([2]; mice)?
A: 2- to 3 fold

Q: And the “oral bioavailability improvement with sodium oleate” value ([2]; mice)?
A: about 2 fold

Q: And the Tmax ([2]; oral dose, rodents (mice))?
A: ~42 min

Q: And the “AUC calculated over 2 hr posttreatment” value [2, 9]?
A: 35.1±18.9 min Pg-eq/ml

Q: And the Cmax [2, 9]?
A: 1.4 Pg-eq/ml

Q: What about the “AUC calculated over 2 hr posttreatment” value [2, 10] of the same compound?
A: 23.0±15.4 min Pg-eq/ml

Q: What about the Cmax [2, 10] of the same compound?
A: 0.55 Pg-eq/ml

Q: And the “AUC calculated over 2 hr posttreatment” value [2, 11]?
A: 17.4±6.7 min Pg-eq/ml

Q: What about the Cmax [2, 11] of the same compound?
A: 0.93 Pg-eq/ml

Q: What about the “AUC calculated over 2 hr posttreatment” value [2, 12] of the same compound?
A: 8.3±6.2 min Pg-eq/ml

Q: And the Cmax [2, 12]?
A: 0.32 Pg-eq/ml

Q: And the “Cmax improvement with sodium oleate” value ([2]; po, mice)?
A: approximately 3 fold

Q: And the “inhibition of CYP1A2 activity” value [3]?
A: did not inhibit

Q: What about the “inhibition of CYP3A4 activity” value [4] of the same compound?
A: did not inhibit

Q: What about the stability in plasma [5] of the same compound?
A: stable

Q: And the “time of slight to moderate emesis post-dose” value ([6]; 3,4,3-L1(1,2-HOPO) treatment groups)?
A: < 2 h

Q: And the “changes in body weight, food consumption, ophthalmology, cardiovascular assessments, clinical pathology, urinalysis, gross necropsy observations, or organ weights” value ([6]; 37.5, 75, or 150 mg/kg)?
A: no meaningful changes

Q: And the “increase in BUN relative to pre-test” value [6, 13]?
A: 1.8 fold

Q: And the “increase in CR relative to pre-test” value [6, 13]?
A: 1.3 fold

Q: And the “serum iron, unsaturated iron binding capacity, total iron binding capacity, magnesium, and ferritin” value ([6]; Days 2 or 15, treated groups compared with controls)?
A: none of these parameters were meaningfully altered

Q: What about the Post-dose emesis ([6]; high dose group) of the same compound?
A: 3 dogs out of 12 dogs per group

Q: What about the “Extreme diarrhea, incidence” value ([6]; high-dose (150 mg/kg) males, Day 1) of the same compound?
A: 33%

Q: What about the “Slight diarrhea, incidence” value ([6]; high-dose group (150 mg/kg) females, Day 1) of the same compound?
A: 33%

Q: What about the “Slight diarrhea, incidence” value ([6]; high-dose group (150 mg/kg) males, Day 1) of the same compound?
A: 17%

Q: What about the “Renal findings (tubular casts and dilation, interstitial hemorrhage, hemosiderin pigmentation), incidence” value ([6]; high-dose group (150 mg/kg), Day 15 recovery sacrifice) of the same compound?
A: 1 of 3

Q: And the Post-dose emesis ([6]; low dose group)?
A: 1 dogs out of 12 dogs per group

Q: What about the Diarrhea ([6]; low-dose group (37.5 mg/kg)) of the same compound?
A: absent

Q: And the Post-dose emesis ([6]; mid dose group)?
A: 2 dogs out of 12 dogs per group

Q: What about the “Slight diarrhea, incidence” value ([6]; mid-dose group (75 mg/kg) females, Day 1) of the same compound?
A: 67%

Q: And the MTD ([6]; single oral administration, dogs)?
A: greater than 150 mg/kg

Q: And the “electrocardiographic, heart rate, or blood pressure findings” value [7]?
A: no electrocardiographic, heart rate, or blood pressure findings

Q: And the renal findings ([8]; 7 days of oral gavage)?
A: no renal findings

Q: And the “soft stools or diarrhea” value ([8]; oral gavage 400-1300 mg/kg (532-1732 μmol/kg) for 7 days)?
A: not observed
